Laboratory results published in patent publication US20140000883A1, “PETROLEUM RECOVERY PROCESS AND SYSTEM” (Shell Oil Company, priority 2012, published 2014).

Assays:
[1] = SARA analysis of extracted bitumen samples; conditions: bitumen extracted at 30° C.
Method: The bitumen samples extracted at 30° C. from each oil sands sample were evaluated by SARA analysis to determine the saturates, aromatics, resins, and asphaltenes composition of the bitumen samples extracted by each solvent.

[2] = Viscosity of crude blended with dimethyl sulfide (rheometer); format: physicochemical
Method: The quality of dimethyl sulfide as an oil recovery agent based on the crude oil viscosity lowering properties of dimethyl sulfide was evalulated. Three crude oils having widely disparate viscosity characteristics—an African Waxy crude, a Middle Eastern asphaltic crude, and a Canadian asphaltic crude—were blended with dimethyl sulfide.
A control sample of each crude was prepared containing no dimethyl sulfide, and samples of each crude were prepared and blended with dimethyl sulfide to prepare crude samples containing increasing concentrations of dimethyl sulfide. Each sample of each of the crudes was heated to 60° C. to dissolve any waxes therein and to permit weighing of a homogeneous liquid, weighed, allowed to cool overnight, then blended with a selected quantity of dimethyl sulfide. The samples of the crude/dimethyl sulfide blend were then heated to 60° C. and mixed to ensure homogeneous blending of the dimethyl sulfide in the samples. Absolute (dynamic) viscosity measurements of each of the samples were taken using a rheometer and closed cup sensor assembly. Viscosity measurements of each of the samples of the West African waxy crude and the Middle Eastern asphaltic crude were taken at 20° C., 40° C., 60° C., 80° C., and then again at 20° C. after cooling from 80° C., where the second measurement at 20° C. is taken to measure the viscosity without the presence of waxes since wax formation occurs slowly enough to permit viscosity measurement at 20° C. without the presence of wax. Viscosity measurements of each of the samples of the Canadian asphaltic crude were taken at 5° C., 10° C., 20° C., 40° C., 60° C., 80° C., The measured viscosities for each of the crudes are shown in Tables 4, 5, and 6 below.

CSC [Dimethyl Sulfide, dimethyl sulfide]
extraction of / miscibility with asphaltenes [1]: excellent miscibility properties | Viscosity ([2]; DMS 1.21 wt. %, 20° C.): 125.8 mPa s | Viscosity ([2]; DMS 1.21 wt. %, 20° C. after cooling from 80° C.): 100.1 mPa s | Viscosity ([2]; DMS 1.21 wt. %, 40° C.): 30.94 mPa s | Viscosity ([2]; DMS 1.21 wt. %, 60° C.): 14.66 mPa s | Viscosity ([2]; DMS 1.21 wt. %, 80° C.): 8.92 mPa s | Viscosity ([2]; DMS 1.3 wt. %, 20° C.): 1733.8 mPa s | Viscosity ([2]; DMS 1.3 wt. %, 20° C. after cooling from 80° C.): 1624.8 mPa s | Viscosity ([2]; DMS 1.3 wt. %, 40° C.): 334.5 mPa s | Viscosity ([2]; DMS 1.3 wt. %, 60° C.): 106.7 mPa s | Viscosity ([2]; DMS 1.3 wt. %, 80° C.): 44.6 mPa s | Viscosity ([2]; DMS 2.48 wt. %, 20° C.): 122.3 mPa s | Viscosity ([2]; DMS 2.48 wt. %, 20° C. after cooling from 80° C.): 89.23 mPa s | Viscosity ([2]; DMS 2.48 wt. %, 40° C.): 30.53 mPa s | Viscosity ([2]; DMS 2.48 wt. %, 60° C.): 13.66 mPa s | Viscosity ([2]; DMS 2.48 wt. %, 80° C.): 8.44 mPa s | Viscosity ([2]; DMS 2.6 wt. %, 20° C.): 1026.6 mPa s | Viscosity ([2]; DMS 2.6 wt. %, 20° C. after cooling from 80° C.): 881.1 mPa s | Viscosity ([2]; DMS 2.6 wt. %, 40° C.): 219.9 mPa s | Viscosity ([2]; DMS 2.6 wt. %, 60° C.): 76.5 mPa s | Viscosity ([2]; DMS 2.6 wt. %, 80° C.): 34.3 mPa s | Viscosity ([2]; DMS 5.03 wt. %, 20° C.): 78.37 mPa s | Viscosity ([2]; DMS 5.03 wt. %, 20° C. after cooling from 80° C.): 55.21 mPa s | Viscosity ([2]; DMS 5.03 wt. %, 40° C.): 20.24 mPa s | Viscosity ([2]; DMS 5.03 wt. %, 60° C.): 10.45 mPa s | Viscosity ([2]; DMS 5.03 wt. %, 80° C.): 6.55 mPa s | Viscosity ([2]; DMS 5.3 wt. %, 20° C.): 496.5 mPa s | Viscosity ([2]; DMS 5.3 wt. %, 20° C. after cooling from 80° C.): 503.5 mPa s | Viscosity ([2]; DMS 5.3 wt. %, 40° C.): 134.2 mPa s | Viscosity ([2]; DMS 5.3 wt. %, 60° C.): 52.2 mPa s | Viscosity ([2]; DMS 5.3 wt. %, 80° C.): 25.5 mPa s | Viscosity ([2]; DMS 7.6 wt. %, 20° C.): 288.0 mPa s | Viscosity ([2]; DMS 7.60 wt. %, 20° C.): 60.92 mPa s | Viscosity ([2]; DMS 7.6 wt. %, 20° C. after cooling from 80° C.): 290.0 mPa s | Viscosity ([2]; DMS 7.60 wt. %, 20° C. after cooling from 80° C.): 40.89 mPa s | Viscosity ([2]; DMS 7.6 wt. %, 40° C.): 89.4 mPa s | Viscosity ([2]; DMS 7.60 wt. %, 40° C.): 17.08 mPa s | Viscosity ([2]; DMS 7.6 wt. %, 60° C.): 37.4 mPa s | Viscosity ([2]; DMS 7.60 wt. %, 60° C.): 9.29 mPa s | Viscosity ([2]; DMS 7.6 wt. %, 80° C.): 19.3 mPa s | Viscosity ([2]; DMS 7.60 wt. %, 80° C.): 6.09 mPa s | Viscosity ([2]; DMS 8.01 wt. %, 20° C.): 5799 mPa s | Viscosity ([2]; DMS 8.01 wt. %, 40° C.): 982 mPa s | Viscosity ([2]; DMS 8.01 wt. %, 60° C.): 275 mPa s | Viscosity ([2]; DMS 8.01 wt. %, 80° C.): 106 mPa s | Viscosity ([2]; DMS 9.80 wt. %, 20° C.): 2760 mPa s | Viscosity ([2]; DMS 9.80 wt. %, 40° C.): 571 mPa s | Viscosity ([2]; DMS 9.80 wt. %, 60° C.): 173 mPa s | Viscosity ([2]; DMS 9.80 wt. %, 80° C.): 73 mPa s | Viscosity ([2]; DMS 9.95 wt. %, 20° C.): 44.70 mPa s | Viscosity ([2]; DMS 9.95 wt. %, 20° C. after cooling from 80° C.): 30.61 mPa s | Viscosity ([2]; DMS 9.95 wt. %, 40° C.): 13.03 mPa s | Viscosity ([2]; DMS 9.95 wt. %, 60° C.): 7.58 mPa s | Viscosity ([2]; DMS 9.95 wt. %, 80° C.): 5.04 mPa s | Viscosity ([2]; DMS 10.1 wt. %, 20° C.): 150.0 mPa s | Viscosity ([2]; DMS 10.1 wt. %, 20° C. after cooling from 80° C.): 150.5 mPa s | Viscosity ([2]; DMS 10.1 wt. %, 40° C.): 52.4 mPa s | Viscosity ([2]; DMS 10.1 wt. %, 60° C.): 24.5 mPa s | Viscosity ([2]; DMS 10.1 wt. %, 80° C.): 13.5 mPa s | Viscosity ([2]; DMS 14.81 wt. %, 5° C.): 1794 mPa s | Viscosity ([2]; DMS 14.81 wt. %, 10° C.): 1155 mPa s | Viscosity ([2]; DMS 14.81 wt. %, 20° C.): 548 mPa s | Viscosity ([2]; DMS 14.81 wt. %, 40° C.): 159 mPa s | Viscosity ([2]; DMS 14.81 wt. %, 60° C.): 64 mPa s | Viscosity ([2]; DMS 14.81 wt. %, 80° C.): 32 mPa s | Viscosity ([2]; DMS 15.13 wt. %, 20° C.): 23.96 mPa s | Viscosity ([2]; DMS 15.13 wt. %, 20° C. after cooling from 80° C.): 17.64 mPa s | Viscosity ([2]; DMS 15.13 wt. %, 40° C.): 8.32 mPa s | Viscosity ([2]; DMS 15.13 wt. %, 60° C.): 4.97 mPa s | Viscosity ([2]; DMS 15.13 wt. %, 80° C.): 3.38 mPa s | Viscosity ([2]; DMS 15.2 wt. %, 20° C.): 59.4 mPa s | Viscosity ([2]; DMS 15.2 wt. %, 20° C. after cooling from 80° C.): 60.7 mPa s | Viscosity ([2]; DMS 15.2 wt. %, 40° C.): 25.2 mPa s | Viscosity ([2]; DMS 15.2 wt. %, 60° C.): 13.6 mPa s | Viscosity ([2]; DMS 15.2 wt. %, 80° C.): 8.2 mPa s | Viscosity ([2]; DMS 19.30 wt. %, 20° C.): 15.26 mPa s | Viscosity ([2]; DMS 19.30 wt. %, 20° C. after cooling from 80° C.): 12.06 mPa s | Viscosity ([2]; DMS 19.30 wt. %, 40° C.): 6.25 mPa s | Viscosity ([2]; DMS 19.30 wt. %, 60° C.): 4.05 mPa s | Viscosity ([2]; DMS 19.30 wt. %, 80° C.): 2.92 mPa s | Viscosity ([2]; DMS 19.78 wt. %, 20° C.): 188 mPa s | Viscosity ([2]; DMS 19.78 wt. %, 40° C.): 69 mPa s | Viscosity ([2]; DMS 19.78 wt. %, 60° C.): 33 mPa s | Viscosity ([2]; DMS 19.78 wt. %, 80° C.): 19 mPa s | Viscosity ([2]; DMS 20.1 wt. %, 20° C.): 29.9 mPa s | Viscosity ([2]; DMS 20.1 wt. %, 20° C. after cooling from 80° C.): 31.0 mPa s | Viscosity ([2]; DMS 20.1 wt. %, 40° C.): 14.8 mPa s | Viscosity ([2]; DMS 20.1 wt. %, 60° C.): 8.7 mPa s | Viscosity ([2]; DMS 20.1 wt. %, 80° C.): 5.7 mPa s | Viscosity ([2]; DMS 29.88 wt. %, 5° C.): 113 mPa s | Viscosity ([2]; DMS 29.88 wt. %, 10° C.): 81 mPa s | Viscosity ([2]; DMS 29.88 wt. %, 20° C.): 51 mPa s | Viscosity ([2]; DMS 29.88 wt. %, 40° C.): 22 mPa s | Viscosity ([2]; DMS 29.88 wt. %, 60° C.): 13 mPa s | Viscosity ([2]; DMS 29.88 wt. %, 80° C.): 8 mPa s | Viscosity ([2]; DMS 39.61 wt. %, 5° C.): 23 mPa s | Viscosity ([2]; DMS 39.61 wt. %, 10° C.): 20 mPa s | Viscosity ([2]; DMS 39.61 wt. %, 20° C.): 14 mPa s | Viscosity ([2]; DMS 39.61 wt. %, 40° C.): 8 mPa s | Viscosity ([2]; DMS 39.61 wt. %, 60° C.): 6 mPa s | Viscosity ([2]; DMS 39.61 wt. %, 80° C.): 4 mPa s | lowering the viscosity of a crude oil ([2]; three crudes, wide range of initial viscosities): effective for significantly lowering the viscosity
